# Measured values reported in patent US7612205B2, “Crystals of quinolinecarboxylic acid derivative solvate” (Nippon Shinyaku Co., Ltd., priority 2003, dated 2009).
# Read-outs that look alike come from different tables or passages of the source.
# Experiments:
# [1] = Stability of Compound A in a solvent by high-performance liquid chromatography; format: physicochemical; parameters: key to Chemical stability (*2): ◯: the one that did not have a peak other than that of Compound A (there is no degradation product); X: the one that had a peak other than that of Compound A (there is a degradation product); details: 50° C. for 1000 minutes, HPLC; for Chemical stability (*2): 2-fold volume
# Procedure: (2) In order to investigate the stability of Compound A in a solvent, a 2-fold volume (the volume of a solvent (ml)/the weight of a dissolved substance (g)) of a solvent was added to Compound A, the mixture was maintained at 50° C. for 1000 minutes, and then the stability of the compound was investigated by high-performance liquid chromatography.
# (§1) The results of the (1) described above are shown in the column of *1 of Table 2 and the results of the (2) described above are shown in the column of *2 of Table 2.
# [2] = Investigation on solvent for crystallization: whether Compound A is dissolved in a solvent; format: physicochemical; details: organic solvent or mixture, thermodynamic from solid, 3 ml solvent to 50 mg
# Procedure: (1) By adding 3 ml of a solvent to 50 mg of Compound A, it was investigated whether Compound A is dissolved or not.
# as §1
# [3] = in acetonitrile, stirred for 30 minutes
# Procedure: In the present invention, the term “solvent mediated transformation” means transformation of a crystal into another crystal form in the presence of a solvent. For example, it means that at a predetermined temperature, the crystal of Compound B is transformed into the type I crystal of Compound A in a solvent.
# The crystal of Compound B was added to acetonitrile in an amount of not less than the supersaturation concentration at a predetermined temperature (in a state where not all the added crystals are dissolved and some crystals are present), stirred for 30 minutes, and then the crystal was filtered and measured with a powder X-ray diffractometer.
# [4] = acetonitrile, in terms of the desolvate
# From the text: In the present invention, the term “supersaturation concentration: Cx (g/100 g)” means the degree of supersaturation state and it is represented by the following formula. Cx=C−Cs
# Where, C (g/100 g) indicates the mass (in terms of the desolvate) of Compound B dissolved in 100 g of a solvent.
# Cs (g/100 g) indicates the saturation solubility (in terms of the desolvate) of Compound B dissolved in 100 g of a solvent under the temperature at the time of occurrence of spontaneous nucleation or addition of seed crystal.
# A predetermined amount of Compound A was dissolved in a predetermined amount of acetonitrile, crystallization was carried out at various supersaturation concentrations, and the obtained crystals were analyzed with a powder X-ray diffractometer.
smiles,measurement,setting,value
"Cc1oc(=O)oc1CN1CCN(c2cc3c(cc2F)c(=O)c(C(=O)O)c2n3C(C)S2)CC1 (stereo not drawn) [Compound A, 6-fluoro-1-methyl-7-[4-(5-methyl-2-oxo-1,3-dioxolen-4-yl)-methyl-1-piperazinyl]-4-oxo-4H-[1,3]thiazeto[3,2-a]quinoline-3-carboxylic acid]",degradation product in solvent,"[1]; formic acid, acetic acid and aniline",a degradation product of Compound A was observed
same,Chemical stability (*2),[1]; solvent 2-ethoxy ethanol,X
same,Chemical stability (*2),[1]; solvent acetic acid,X
same,Chemical stability (*2),[1]; solvent acetic anhydride,X
same,Chemical stability (*2),[1]; solvent acetonitrile,◯
same,Chemical stability (*2),[1]; solvent aniline,X
same,Chemical stability (*2),[1]; solvent formic acid,X
same,Chemical stability (*2),[1]; solvent methanol,X
same,Chemical stability (*2),[1]; solvent phenol,X
same,solubility,[2]; solvent 1-butanol,≤ 16.7 mg/mL
same,solubility,"[2]; solvent 2-ethoxy ethanol, read-out: Solubility (*1)",≥ 16.7 mg/mL
same,solubility,"[2]; solvent 2-propanol, read-out: Solubility (*1)",≤ 16.7 mg/mL
same,solubility,"[2]; solvent N,N-dimethylformamide, read-out: Solubility (*1)",> 16.7 mg/mL
same,solubility,"[2]; solvent acetic acid, read-out: Solubility (*1)",> 16.7 mg/mL
same,solubility,"[2]; solvent acetic anhydride, read-out: Solubility (*1)",≥ 16.7 mg/mL
same,solubility,"[2]; solvent acetone, read-out: Solubility (*1)",≤ 16.7 mg/mL
same,solubility,"[2]; solvent acetonitrile, read-out: Solubility (*1)",≥ 16.7 mg/mL
same,solubility,"[2]; solvent aniline, read-out: Solubility (*1)",> 16.7 mg/mL
same,solubility,"[2]; solvent benzene, read-out: Solubility (*1)",≤ 16.7 mg/mL
same,solubility,"[2]; solvent carbon tetrachloride, read-out: Solubility (*1)",≤ 16.7 mg/mL
same,solubility,"[2]; solvent chloroacetonitrile, read-out: Solubility (*1)",> 16.7 mg/mL
same,solubility,"[2]; solvent chloroform, read-out: Solubility (*1)",≤ 16.7 mg/mL
same,solubility,"[2]; solvent cresol, read-out: Solubility (*1)",≤ 16.7 mg/mL
same,solubility,"[2]; solvent dibutyl ether, read-out: Solubility (*1)",≤ 16.7 mg/mL
same,solubility,"[2]; solvent diisopropyl ether, read-out: Solubility (*1)",≤ 16.7 mg/mL
same,solubility,"[2]; solvent dioxane, read-out: Solubility (*1)",≤ 16.7 mg/mL
same,solubility,"[2]; solvent diphenyl ether, read-out: Solubility (*1)",≤ 16.7 mg/mL
same,solubility,"[2]; solvent ethanol, read-out: Solubility (*1)",≤ 16.7 mg/mL
same,solubility,"[2]; solvent ethyl acetate, read-out: Solubility (*1)",≤ 16.7 mg/mL
same,solubility,"[2]; solvent formamide, read-out: Solubility (*1)",≤ 16.7 mg/mL
same,solubility,"[2]; solvent formic acid, read-out: Solubility (*1)",> 16.7 mg/mL
same,solubility,"[2]; solvent glycerin, read-out: Solubility (*1)",≤ 16.7 mg/mL
same,solubility,"[2]; solvent heptane, read-out: Solubility (*1)",≤ 16.7 mg/mL
same,solubility,"[2]; solvent hexane, read-out: Solubility (*1)",≤ 16.7 mg/mL
same,solubility,"[2]; solvent isobutyl alcohol, read-out: Solubility (*1)",≤ 16.7 mg/mL
same,solubility,"[2]; solvent isopropyl acetate, read-out: Solubility (*1)",≤ 16.7 mg/mL
same,solubility,"[2]; solvent ligroin, read-out: Solubility (*1)",≤ 16.7 mg/mL
same,solubility,"[2]; solvent methanol, read-out: Solubility (*1)",≤ 16.7 mg/mL
same,solubility,"[2]; solvent methyl acetate, read-out: Solubility (*1)",≤ 16.7 mg/mL
same,solubility,"[2]; solvent methyl ethyl ketone, read-out: Solubility (*1)",≤ 16.7 mg/mL
same,solubility,"[2]; solvent methylcyclohexane, read-out: Solubility (*1)",≤ 16.7 mg/mL
same,solubility,"[2]; solvent nitromethane, read-out: Solubility (*1)",> 16.7 mg/mL
same,solubility,"[2]; solvent p-cymene, read-out: Solubility (*1)",≤ 16.7 mg/mL
same,solubility,"[2]; solvent petroleum ether, read-out: Solubility (*1)",≤ 16.7 mg/mL
same,solubility,"[2]; solvent phenol, read-out: Solubility (*1)",≥ 16.7 mg/mL
same,solubility,"[2]; solvent pyridine, read-out: Solubility (*1)",> 16.7 mg/mL
same,solubility,"[2]; solvent tetrachloroethylene, read-out: Solubility (*1)",≤ 16.7 mg/mL
same,solubility,"[2]; solvent tetrahydrofuran, read-out: Solubility (*1)",≤ 16.7 mg/mL
same,solubility,"[2]; solvent toluene, read-out: Solubility (*1)",≤ 16.7 mg/mL
same,solubility,"[2]; solvent trichloroethylene, read-out: Solubility (*1)",≤ 16.7 mg/mL
same,solubility,"[2]; solvent xylene, read-out: Solubility (*1)",≤ 16.7 mg/mL
"CC#N.Cc1oc(=O)oc1CN1CCN(c2cc3c(cc2F)c(=O)c(C(=O)O)c2n3C(C)S2)CC1 (stereo not drawn) [Compound B, 6-fluoro-1-methyl-7-[4-(5-methyl-2-oxo-1,3-dioxolen-4-yl)-methyl-1-piperazinyl]-4-oxo-4H-[1,3]thiazeto[3,2-a]quinoline-3-carboxylic acid acetonitrile solvate]",Crystal form,[3]; 25 ° C.,Not changed
same,Crystal form,[3]; 40 ° C.,Not changed
same,Crystal form,[3]; 55 ° C.,Not changed
same,Crystal form,[3]; 67 ° C.,Not changed
same,Solubility at the time of occurrence of spontaneous nucleation or addition of seed crystals (Cs),[4]; 0 ° C.,0.07 g/100 g
same,Solubility at the time of occurrence of spontaneous nucleation or addition of seed crystals (Cs),[4]; 14.3 ° C.,0.16 g/100 g
same,Solubility at the time of occurrence of spontaneous nucleation or addition of seed crystals (Cs),[4]; 17 ° C.,0.19 g/100 g
same,Solubility at the time of occurrence of spontaneous nucleation or addition of seed crystals (Cs),[4]; 25 ° C.,0.29 g/100 g
same,Solubility at the time of occurrence of spontaneous nucleation or addition of seed crystals (Cs),[4]; 27 ° C.,0.32 g/100 g
same,Solubility at the time of occurrence of spontaneous nucleation or addition of seed crystals (Cs),[4]; 30 ° C.,0.38 g/100 g
same,Solubility at the time of occurrence of spontaneous nucleation or addition of seed crystals (Cs),[4]; 45 ° C.,0.79 g/100 g
same,Solubility at the time of occurrence of spontaneous nucleation or addition of seed crystals (Cs),[4]; 50 ° C.,1.00 g/100 g
same,Solubility at the time of occurrence of spontaneous nucleation or addition of seed crystals (Cs),[4]; 55 ° C.,1.25 g/100 g
same,Solubility at the time of occurrence of spontaneous nucleation or addition of seed crystals (Cs),[4]; 65 ° C.,1.92 g/100 g
same,Solubility at the time of occurrence of spontaneous nucleation or addition of seed crystals (Cs),[4]; 70 ° C.,2.36 g/100 g
